The CheMixHub drug solubility set

Assay: xn = mol fraction of the nth substance listed, in the solute-free solvent

CC(=O)Nc1ccc(OC(=O)c2ccccc2OC(C)=O)cc1 + CN1CCCC1=O + O
solubility (g/100 g solution)
Conditions | 278.15 K | 283.15 K | 288.15 K | 293.15 K | 298.15 K | 303.15 K | 308.15 K | 313.15 K | 318.15 K
x2 = 0.0198 | 0.0101 | 0.0143 | 0.02 | 0.0278 | 0.0388 | 0.0522 | 0.0688 | 0.0923 | 0.122
x2 = 0.04347 | 0.0672 | 0.0901 | 0.121 | 0.159 | 0.209 | 0.268 | 0.349 | 0.446 | 0.569
x2 = 0.07228 | 0.275 | 0.355 | 0.448 | 0.581 | 0.725 | 0.903 | 1.13 | 1.39 | 1.7
x2 = 0.1081 | 0.8 | 0.998 | 1.25 | 1.51 | 1.85 | 2.22 | 2.69 | 3.19 | 3.81
x2 = 0.1538 | 1.62 | 1.95 | 2.37 | 2.85 | 3.4 | 4.01 | 4.67 | 5.48 | 6.35
x2 = 0.2143 | 2.87 | 3.37 | 3.94 | 4.63 | 5.38 | 6.15 | 7.12 | 8.13 | 9.18
x2 = 0.2979 | 4.29 | 4.95 | 5.76 | 6.59 | 7.51 | 8.56 | 9.7 | 10.8 | 12.1
x2 = 0.421 | 5.72 | 6.53 | 7.43 | 8.43 | 9.49 | 10.7 | 11.8 | 13.2 | 14.5
x2 = 0.6207 | 6.55 | 7.48 | 8.44 | 9.55 | 10.7 | 11.9 | 13.3 | 14.7 | 16.1

O=[N+]([O-])c1cc[nH]n1 + CCCO + O
solubility (g/100 g solution)
Conditions | 283.15 K | 288.15 K | 293.15 K | 298.15 K | 303.15 K | 308.15 K | 313.15 K | 318.15 K | 323.15 K
x2 = 0.03225 | 0.274 | 0.349 | 0.477 | 0.616 | 0.783 | 1.04 | 1.33 | 1.86 | 2.35
x2 = 0.06974 | 0.307 | 0.377 | 0.489 | – | 0.772 | 1.01 | 1.29 | 1.68 | 2.18
x2 = 0.1139 | 0.626 | 0.769 | 0.945 | 1.16 | 1.45 | 1.78 | 2.31 | 2.95 | 3.78
x2 = 0.1666 | 0.964 | 1.19 | 1.43 | 1.76 | 2.13 | 2.64 | 3.29 | 4.2 | 5.32
x2 = 0.2307 | 1.35 | 1.63 | 1.97 | 2.36 | 2.87 | 3.48 | 4.23 | 5.37 | 6.75
x2 = 0.3103 | 1.73 | 2.03 | 2.41 | 2.87 | 3.44 | 4.09 | 4.96 | 6.34 | 7.73
x2 = 0.4117 | 2.08 | 2.44 | 2.82 | 3.32 | 3.87 | 4.69 | 5.64 | 6.61 | 8.31
x2 = 0.5454 | 2.49 | 2.85 | 3.25 | 3.76 | 4.35 | 5.08 | 6.07 | 7.31 | 8.56
x2 = 0.7297 | 2.69 | 3.11 | 3.53 | 4 | 4.54 | 5.23 | 6.03 | 7.19 | 8.45

CN1CCN(C(=O)OC2c3nccnc3C(=O)N2c2ccc(Cl)cn2)CC1 (configuration not stated) + C1CCOC1 + O
solubility (g/100 g solution)
Conditions | x2 = 0.3 | x2 = 0.4 | x2 = 0.5 | x2 = 0.6 | x2 = 0.7 | x2 = 0.8 | x2 = 0.9
288.15 K | 0.41 | 0.79 | 1.33 | 2.06 | 2.8 | 3.32 | 3.83
298.15 K | 0.626 | 1.14 | 1.83 | 2.66 | 3.57 | 4.41 | 4.87
308.15 K | 0.91 | 1.54 | 2.43 | 3.54 | 4.53 | 5.71 | 6.18
318.15 K | 1.13 | 2 | 3.21 | 4.68 | 6.19 | 7.53 | 8.07
328.15 K | 1.47 | 2.59 | 4.15 | 6.16 | 8.4 | 9.55 | 9.98

O=c1[nH]cc(F)c(=O)[nH]1 + O + C1CCOC1
solubility (g/100 g solution)
Conditions | 283.15 K | 288.15 K | 293.15 K | 298.15 K | 303.15 K | 308.15 K | 313.15 K | 318.15 K | 323.15 K
x2 = 0.5001 | 0.119 | 0.145 | 0.171 | 0.198 | 0.236 | 0.281 | 0.337 | 0.424 | 0.513
x2 = 0.7273 | 0.219 | 0.264 | 0.307 | 0.36 | 0.423 | 0.498 | 0.61 | 0.721 | 0.868
x2 = 0.8572 | 0.382 | 0.44 | 0.504 | 0.585 | 0.675 | 0.811 | 0.97 | 1.08 | 1.3
x2 = 0.9412 | 0.615 | 0.702 | 0.795 | 0.91 | 1.05 | 1.22 | 1.45 | 1.74 | 1.93

O=c1[nH]cc(F)c(=O)[nH]1 + CCCO + C1CCOC1
solubility (g/100 g solution)
Conditions | 283.15 K | 288.15 K | 293.15 K | 298.15 K | 303.15 K | 308.15 K | 313.15 K | 318.15 K | 323.15 K
x2 = 0.2307 | 0.148 | 0.169 | 0.195 | 0.226 | 0.263 | 0.313 | 0.373 | 0.452 | 0.536
x2 = 0.4444 | 0.17 | 0.196 | 0.225 | 0.258 | 0.299 | 0.351 | 0.42 | 0.496 | 0.588
x2 = 0.6428 | 0.201 | 0.229 | 0.258 | 0.297 | 0.34 | 0.397 | 0.467 | 0.543 | 0.625
x2 = 0.8276 | 0.228 | 0.263 | 0.298 | 0.34 | 0.393 | 0.457 | 0.539 | 0.651 | 0.763

O=C1NS(=O)(=O)c2ccccc21 + CC#N + CC(C)O
solubility (g/100 g solution)
Conditions | x2 = 0.0998 | x2 = 0.2002 | x2 = 0.2999 | x2 = 0.3996 | x2 = 0.5004 | x2 = 0.5997 | x2 = 0.7001 | x2 = 0.7997 | x2 = 0.8996
293.15 K | 4.08 | 5.79 | 7.19 | 8.27 | 8.87 | 8.79 | 8.19 | 7 | 5.08
298.15 K | 4.75 | 6.64 | 8.05 | 9.07 | 9.79 | 9.66 | 8.97 | 7.68 | 5.75
303.15 K | 5.49 | 7.5 | 9.3 | 10.4 | 11.2 | 10.8 | 10.1 | 8.77 | 6.38
308.15 K | 6.33 | 8.56 | 10.5 | 11.7 | 12.3 | 12.3 | 11.5 | 9.73 | 7.32
313.15 K | 7.35 | 10 | 12.1 | 13.4 | 14.2 | 14.1 | 13.1 | 11.2 | 8.37
318.15 K | 8.79 | 11.8 | 14.1 | 15.5 | 16.3 | 16.2 | 15.1 | 12.9 | 9.59
323.15 K | 10.3 | 13.5 | 16 | 17.6 | 18.3 | 18 | 16.8 | 14.3 | 10.7

CS(=O)(=O)c1ccc(C(O)C(CF)NC(=O)C(Cl)Cl)cc1 (configuration not stated) + CCO + O
solubility (g/100 g solution)
Conditions | 278.15 K | 283.15 K | 288.15 K | 293.15 K | 298.15 K | 303.15 K | 308.15 K | 313.15 K | 318.15 K
x2 = 0.04165 | 0.113 | 0.15 | 0.202 | 0.267 | 0.34 | 0.453 | 0.569 | 0.728 | 0.926
x2 = 0.08908 | 0.225 | 0.295 | 0.39 | 0.507 | 0.655 | 0.841 | 1.06 | 1.33 | 1.64
x2 = 0.1436 | 0.376 | 0.498 | 0.639 | 0.817 | 1.03 | 1.29 | 1.6 | 1.99 | 2.41
x2 = 0.2068 | 0.536 | 0.699 | 0.887 | 1.13 | 1.42 | 1.76 | 2.15 | 2.65 | 3.18
x2 = 0.2812 | 0.663 | 0.857 | 1.08 | 1.38 | 1.72 | 2.13 | 2.59 | 3.18 | 3.85
x2 = 0.3698 | 0.77 | 0.998 | 1.27 | 1.6 | 2.01 | 2.48 | 3.02 | 3.69 | 4.43
x2 = 0.4772 | 0.869 | 1.11 | 1.43 | 1.79 | 2.22 | 2.75 | 3.35 | 4.05 | 4.88
x2 = 0.6101 | 0.959 | 1.22 | 1.55 | 1.94 | 2.42 | 2.98 | 3.59 | 4.37 | 5.21
x2 = 0.7788 | 1.01 | 1.3 | 1.62 | 2.05 | 2.53 | 3.08 | 3.75 | 4.55 | 5.42

O=c1ccc2ccccc2o1 + CCO + O
solubility (g/100 g solution)
Conditions | 278.15 K | 283.15 K | 288.15 K | 293.15 K | 298.15 K | 303.15 K | 308.15 K | 313.15 K | 318.15 K
x2 = 0.1429 | 0.201 | 0.363 | 0.646 | 1.12 | 1.9 | 3.1 | 4.94 | 7.56 | 12.1
x2 = 0.2857 | 0.809 | 1.49 | 2.82 | 4.84 | 8.59 | 14.1 | 23.6 | 36.2 | 52.4
x2 = 0.4286 | 2.35 | 4.02 | 6.77 | 10.7 | 17.5 | 25.7 | 37.2 | 51.5 | 65.7
x2 = 0.5714 | 3.44 | 5.45 | 9.19 | 13.8 | 21.1 | 30.1 | 41.7 | 56 | 70
x2 = 0.7143 | 3.65 | 5.85 | 9.47 | 14.4 | 21 | 30.5 | 40.9 | 54.9 | 68.7
x2 = 0.8571 | 3.18 | 5.14 | 8.31 | 12.7 | 19.3 | 28.4 | 38.2 | 51.8 | 66.4

O=c1[nH]cc(F)c(=O)[nH]1 + CN(C)C=O + C1CCOC1
solubility (g/100 g solution)
Conditions | 283.15 K | 288.15 K | 293.15 K | 298.15 K | 303.15 K | 308.15 K | 313.15 K | 318.15 K | 323.15 K
x2 = 0.1978 | 0.137 | 0.174 | 0.209 | 0.264 | 0.33 | 0.423 | 0.551 | 0.66 | 0.816
x2 = 0.3967 | 0.188 | 0.24 | 0.293 | 0.37 | 0.468 | 0.581 | 0.735 | 0.883 | 1.07
x2 = 0.5967 | 0.283 | 0.352 | 0.434 | 0.533 | 0.653 | 0.814 | 1.01 | 1.24 | 1.51
x2 = 0.7978 | 0.461 | 0.564 | 0.685 | 0.829 | 0.996 | 1.23 | 1.51 | 1.84 | 2.23
